Converted amounts (≈) assume the structure as drawn. Starred links: 1 amine or outer side, 2 acyl side, 3 side chain; linkers in the order of their positions; H or OH if unused. Non-standard residues stand in square brackets, D forms with d. Residues, ends and D or L forms follow the SMILES beside them. ξ: configuration not given here. Pro(3ξ,4ξ-(CH2)4) = O=C(O)[C@H]1NCC2CCCCC21; Oic = O=C(O)[C@@H]1C[C@@H]2CCCC[C@@H]2N1; X1 = O=C([C@@H]1CN([*:1])C2CCCCC21)[*:2]; X3 = O=C(C[C@H]1C2CCCCC2CN1[*:1])[*:2]; Tic = O=C(O)[C@@H]1Cc2ccccc2CN1; Dap = NC[C@H](N)C(=O)O
Experiments:
Type in all cases: functional
[1] = test system: Brucella melitensis; test: Antimicrobial activity against Brucella melitensis 16 M after 24 hrs
[2] = test system: Acinetobacter baumannii; test: Antimicrobial activity against Acinetobacter baumannii ATCC 19606 after 24 hrs; details: ATCC 19606 = CIP 70.34 = JCM 6841, 24 h
[3] = test system: Acinetobacter baumannii; test: Antimicrobial activity against Acinetobacter baumannii WRAIR after 24 hrs
[4] = test system: Burkholderia mallei; test: Antimicrobial activity against Burkholderia mallei ATCC 23444 after 24 hrs; details: ATCC 23444, 24 h
[5] = test system: Brucella suis; test: Antimicrobial activity against Brucella suis ATCC 23445 after 24 hrs; details: ATCC 23445, 24 h
[6] = test system: Staphylococcus aureus; test: Antimicrobial activity against methicillin-resistant Staphylococcus aureus ATCC 33591 after 24 hrs; details: ATCC 33591, 24 h
[7] = test system: Yersinia pestis; test: Antimicrobial activity against Yersinia pestis CO92 after 24 hrs; details: CO92, 24 h
[8] = test system: Brucella abortus; test: Antimicrobial activity against Brucella abortus 2308 after 24 hrs; details: Brucella abortus, 2308, 24 h
[9] = test system: Francisella tularensis; test: Antimicrobial activity against Francisella tularensis SCHU-S4 after 24 hrs; details: SCHU-S4, 24 h
[10] = test system: Bacillus anthracis; test: Antimicrobial activity against Bacillus anthracis Ames after 24 hrs
[11] = test system: Burkholderia pseudomallei; test: Antimicrobial activity against Burkholderia pseudomallei BURK003(1026b) after 24 hrs

CC(=O)N[C@@H](Cc1ccccc1)C(=O)N1Cc2ccccc2C[C@H]1C(=O)N1CC2CCCCC2[C@H]1C(=O)N[C@@H](CCCCN)C(=O)N1Cc2ccccc2C[C@H]1C(=O)N1CC2CCCCC2[C@H]1C(=O)N[C@@H](Cc1ccccc1)C(=O)N1Cc2ccccc2C[C@H]1C(=O)N1CC2CCCCC2[C@H]1C(=O)N[C@@H](CCCCN)C(=O)N1Cc2ccccc2C[C@H]1C(=O)N[C@@H](CCCCN)C(=O)N[C@@H](CCCCN)C(=O)N[C@@H](CCCCN)C(=O)N[C@@H](CCCCN)C(=O)N[C@@H](CCCCN)C(=O)N[C@@H](CCCCN)C(N)=O (stereo not given in full) (Ac-F[Tic][Pro(3ξ,4ξ-(CH2)4)]K[Tic][Pro(3ξ,4ξ-(CH2)4)]F[Tic][Pro(3ξ,4ξ-(CH2)4)]K[Tic]KKKKKK-NH2)
MIC [1]: 202 µM (≈ 499 µg/mL)
MIC [2]: 6.3 µM (≈ 15.6 µg/mL)
MIC [3]: 6.3 µM (≈ 15.6 µg/mL)
MIC [4]: 202 µM (≈ 499 µg/mL)
MIC [5]: 13 µM (≈ 32.1 µg/mL)
MIC [6]: 25.3 µM (≈ 62.5 µg/mL)
MIC [7]: 101 µM (≈ 249 µg/mL)
MIC [8]: 101 µM (≈ 249 µg/mL)
MIC [9]: 202 µM (≈ 499 µg/mL)
MIC [10]: 0.75 µM (≈ 1.85 µg/mL)
MIC [11]: 202 µM (≈ 499 µg/mL)

CC(=O)NCC(=O)N[C@@H](Cc1ccccc1)C(=O)N[C@@H](Cc1ccccc1)C(=O)N1CC2CCCCC2[C@H]1C(=O)NCC(=O)N[C@@H](CCCCN)C(=O)N[C@@H](Cc1ccccc1)C(=O)N1CC2CCCCC2[C@H]1C(=O)NCC(=O)N[C@@H](Cc1ccccc1)C(=O)N[C@@H](Cc1ccccc1)C(=O)N1CC2CCCCC2[C@@H]1CC(=O)N[C@@H](CCCCN)C(=O)N[C@@H](Cc1ccccc1)C(=O)N[C@@H](CCCCN)C(=O)N[C@@H](CCCCN)C(=O)N[C@@H](CCCCN)C(=O)N[C@@H](CCCCN)C(N)=O (stereo not given in full) (Ac-GFF[Pro(3ξ,4ξ-(CH2)4)]GKF[Pro(3ξ,4ξ-(CH2)4)]GFF[X3]KFKKKK-NH2)
MIC [1]: 26 µM (≈ 61.1 µg/mL)
MIC [2]: 3.2 µM (≈ 7.52 µg/mL)
MIC [3]: 3.2 µM (≈ 7.52 µg/mL)
MIC [4]: 208 µM (≈ 489 µg/mL)
MIC [5]: 26 µM (≈ 61.1 µg/mL)
MIC [6]: 208 µM (≈ 489 µg/mL)
MIC [7]: 3.2 µM (≈ 7.52 µg/mL)
MIC [8]: 26 µM (≈ 61.1 µg/mL)
MIC [9]: 0.01 µM (≈ 0.0235 µg/mL)
MIC [10]: 0.2 µM (≈ 0.47 µg/mL)
MIC [11]: 208 µM (≈ 489 µg/mL)

CC(=O)NCC(=O)N[C@@H](Cc1ccccc1)C(=O)N1Cc2ccccc2C[C@H]1C(=O)N1[C@H](C(=O)NCC(=O)N[C@@H](CCCCN)C(=O)N2Cc3ccccc3C[C@H]2C(=O)N2[C@H](C(=O)NCC(=O)N[C@@H](Cc3ccccc3)C(=O)N3Cc4ccccc4C[C@H]3C(=O)N3[C@H](C(=O)NCC(=O)N[C@@H](CCCCN)C(=O)N4Cc5ccccc5C[C@H]4C(=O)N[C@@H](CCCCN)C(=O)N[C@@H](CCCCN)C(=O)N[C@@H](CCCCN)C(=O)N[C@@H](CCCCN)C(N)=O)C[C@@H]4CCCC[C@@H]43)C[C@@H]3CCCC[C@@H]32)C[C@@H]2CCCC[C@@H]21 (Ac-GF[Tic][Oic]GK[Tic][Oic]GF[Tic][Oic]GK[Tic]KKKK-NH2)
MIC [1]: 205 µM (≈ 500 µg/mL)
MIC [2]: 3.2 µM (≈ 7.81 µg/mL)
MIC [3]: 3.2 µM (≈ 7.81 µg/mL)
MIC [4]: 205 µM (≈ 500 µg/mL)
MIC [5]: 205 µM (≈ 500 µg/mL)
MIC [6]: 205 µM (≈ 500 µg/mL)
MIC [7]: 205 µM (≈ 500 µg/mL)
MIC [8]: 205 µM (≈ 500 µg/mL)
MIC [9]: 100 µM (≈ 244 µg/mL)
MIC [10]: 12.8 µM (≈ 31.2 µg/mL)
MIC [11]: 205 µM (≈ 500 µg/mL)

CC(=O)NCC(=O)N[C@@H](Cc1ccccc1)C(=O)N1Cc2ccccc2C[C@H]1C(=O)N1[C@H](C(=O)NCC(=O)N[C@@H](CN)C(=O)N2Cc3ccccc3C[C@H]2C(=O)N2[C@H](C(=O)NCC(=O)N[C@@H](Cc3ccccc3)C(=O)N3Cc4ccccc4C[C@H]3C(=O)N3[C@H](C(=O)NCC(=O)N[C@@H](CN)C(=O)N4Cc5ccccc5C[C@H]4C(=O)N[C@@H](CN)C(=O)N[C@@H](CN)C(=O)N[C@@H](CN)C(=O)N[C@@H](CN)C(N)=O)C[C@@H]4CCCC[C@@H]43)C[C@@H]3CCCC[C@@H]32)C[C@@H]2CCCC[C@@H]21 (Ac-GF[Tic][Oic]G[Dap][Tic][Oic]GF[Tic][Oic]G[Dap][Tic][Dap][Dap][Dap][Dap]-NH2)
MIC [1]: 228 µM (≈ 499 µg/mL)
MIC [2]: 3.6 µM (≈ 7.88 µg/mL)
MIC [3]: 3.6 µM (≈ 7.88 µg/mL)
MIC [4]: 228 µM (≈ 499 µg/mL)
MIC [5]: 228 µM (≈ 499 µg/mL)
MIC [6]: 114 µM (≈ 249 µg/mL)
MIC [7]: 228 µM (≈ 499 µg/mL)
MIC [8]: 228 µM (≈ 499 µg/mL)
MIC [9]: 228 µM (≈ 499 µg/mL)
MIC [10]: 14.8 µM (≈ 32.4 µg/mL)
MIC [11]: 228 µM (≈ 499 µg/mL)

CC(=O)NCC(=O)N[C@@H](Cc1ccccc1)C(=O)N1Cc2ccccc2C[C@H]1C(=O)N1C[C@@H](C(=O)NCC(=O)N[C@@H](CCCCN)C(=O)N2Cc3ccccc3C[C@H]2C(=O)N2C[C@@H](C(=O)NCC(=O)N[C@@H](Cc3ccccc3)C(=O)N3Cc4ccccc4C[C@H]3C(=O)N3C[C@@H](C(=O)NCC(=O)N[C@@H](CCCCN)C(=O)N4Cc5ccccc5C[C@H]4C(=O)N[C@@H](CCCCN)C(=O)N[C@@H](CCCCN)C(=O)N[C@@H](CCCCN)C(N)=O)C4CCCCC43)C3CCCCC32)C2CCCCC21 (stereo not given in full) (Ac-GF[Tic][X1]GK[Tic][X1]GF[Tic][X1]GK[Tic]KKK-NH2)
MIC [1]: 54 µM (≈ 125 µg/mL)
MIC [2]: 6.7 µM (≈ 15.5 µg/mL)
MIC [3]: 3.4 µM (≈ 7.86 µg/mL)
MIC [4]: 0.02 µM (≈ 0.0463 µg/mL)
MIC [5]: > 216 µM
MIC [6]: 54 µM (≈ 125 µg/mL)
MIC [7]: 27 µM (≈ 62.4 µg/mL)
MIC [8]: 27 µM (≈ 62.4 µg/mL)
MIC [9]: 0.02 µM (≈ 0.0463 µg/mL)
MIC [10]: 27 µM (≈ 62.4 µg/mL)
MIC [11]: 0.02 µM (≈ 0.0463 µg/mL)
